Test results taken from EP0046712A1, “Fluorinated diaminobutane derivatives” (MERRELL TORAUDE ET COMPAGNIE, priority 1980, dated 1982).
Read-outs that look alike come from different tables or passages of the source.

Tests used:
Assay type in all cases: in vivo
GABA-T = molecular target: T1, GABA-T (Mus musculus, UniProt P61922); assay: GABA-T activity in brain of mice after daily i.p. dosing for four days; settings: ip, four consecutive days, 24 hours after the last dose; for inhibition at 5 mg/kg: daily dose 5 mg/kg i.p.; for inhibition at 10 mg/kg: daily dose 10 mg/kg i.p.
T1 construct: The brains are removed from the dead mice and are divided into two portions by sagittal section; from tissue; host or cells: brain of male albino CD1 mice dosed i.p. for four days
T1 sequence (P61922 29-500): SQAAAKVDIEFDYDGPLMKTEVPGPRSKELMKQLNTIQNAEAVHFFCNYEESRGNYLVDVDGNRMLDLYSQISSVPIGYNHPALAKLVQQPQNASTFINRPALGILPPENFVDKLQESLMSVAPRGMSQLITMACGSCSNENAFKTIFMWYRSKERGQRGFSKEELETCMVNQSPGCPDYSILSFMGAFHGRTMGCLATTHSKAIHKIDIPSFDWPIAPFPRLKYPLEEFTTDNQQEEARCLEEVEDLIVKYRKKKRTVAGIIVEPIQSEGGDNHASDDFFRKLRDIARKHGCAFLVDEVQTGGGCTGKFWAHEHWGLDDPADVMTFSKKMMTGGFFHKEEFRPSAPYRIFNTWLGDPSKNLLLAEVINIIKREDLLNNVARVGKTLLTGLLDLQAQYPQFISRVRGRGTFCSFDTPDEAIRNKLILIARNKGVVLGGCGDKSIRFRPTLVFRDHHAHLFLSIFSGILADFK
Description: (§1) A group of 10 male albino CDI mice from Charles Riner, France, is given an i.p. injection of the test compound in aqueous solution daily for four consecutive days. Half of the animals are killed by decapitation 24 hours after the last dose of the test compound. The other half of the animals are observed for up to 12 days for toxicity (as indicated by weight loss and deaths). Control animals receive an injection of the vehicle only.
(§2) The brains are removed from the dead mice and are divided into two portions by sagittal section. One half is used for the measurement of GABA-T activity while the other half is used for measuring GABA content. The GABA-T activity is measured using known methods as dessribed by M.Jung et al., J. Neurochem., 28, 717 (1977) and 29, 797 (1977). GABA content is measured by perchloric acid or trichloroacetic acid extracts using an amino acid analyzer equiped with a fluorescene detector.

[1] = system: clonic seizures induced by an i.v. challenge of (+)-bicuculline; assay: Protection of mice against clonic seizures induced by i.v. (+)-bicuculline; settings: for ED50: Mus musculus, ip, single dose, protection against bicuculline-induced clonic seizures
[2] = system: GABA concentration in the brain; assay: GABA content in brain of mice after daily i.p. dosing for four days; settings: four consecutive days, 24 hours after the last dose
Description: as §1, §2

[3] = Toxicity (weight loss and deaths) in mice after daily i.p. dosing for four days; settings: four consecutive days, observed for up to 12 days; for Morality (After treatment) / mortality at 288 h: deaths per 5 mice; for mortality at 288 h: mouse, in vivo, ip, read-out: Morality (After treatment) (converted)
Description: as §1

Work on `NCCC(N)C(F)F` (stereo not drawn) [DFDB, 1,1-difluoro-2,4-diaminobutane] yielded an inhibition at 2 mg/kg (GABA-T; daily dose 2 mg/kg i.p.) of 69.5%, an inhibition at 5 mg/kg (GABA-T) of 71.4% and an inhibition at 10 mg/kg (GABA-T) of 81%. The inhibition at 20 mg/kg (GABA-T; daily dose 20 mg/kg i.p.) was 96.7%, the ED50 [1] was 4.2 mg/kg and the “% of Animals Blocked” value ([1]; single dose 3 mg/kg i.p.) was 20%. The “% of Animals Blocked” value ([1]; single dose 4 mg/kg i.p.) was 45%, the “% of Animals Blocked” value ([1]; single dose 6 mg/kg i.p.) was 90% and the “% of Animals Blocked” value ([1]; single dose 8 mg/kg i.p.) was 95%. It also gave a GABA content elevation ([2]; daily dose 5 mg/kg i.p.) of 200%, a GABA content elevation ([2]; daily dose 10 mg/kg i.p.) of 275% and a GABA content elevation ([2]; daily dose 20 mg/kg i.p.) of 465%. For the same compound, the “Morality (After treatment)” value ([3]; daily dose 2 mg/kg i.p.) was 0/5, the “Weight Loss” value ([3]; daily dose 2 mg/kg i.p.) was 0% and the “Morality (After treatment)” value ([3]; daily dose 5 mg/kg i.p.) was 0/5. For the same compound, the “Weight Loss” value ([3]; daily dose 5 mg/kg i.p.) was 0%, the mortality at 288 h ([3]; daily dose 10 mg/kg i.p.) was 60% and the mortality at 288 h ([3]; daily dose 20 mg/kg i.p.) was 100%.

For `NCCC(N)CF` (stereo not drawn) [MFDB, 1-fluoro-2,4-diaminobutane], the inhibition at 5 mg/kg (GABA-T) was 39.7%, the inhibition at 10 mg/kg (GABA-T) was 49.8% and the inhibition at 25 mg/kg (GABA-T; daily dose 25 mg/kg i.p.) was 74%. For the same compound, the inhibition at 50 mg/kg (GABA-T; daily dose 50 mg/kg i.p.) was 79%, the ED50 [1] was 65 mg/kg and the “% of Animals Blocked” value ([1]; single dose 42 mg/kg i.p.) was 20%. For the same compound, the “% of Animals Blocked” value ([1]; single dose 51 mg/kg i.p.) was 40%, the “% of Animals Blocked” value ([1]; single dose 59 mg/kg i.p.) was 50% and the “% of Animals Blocked” value ([1]; single dose 68 mg/kg i.p.) was 55%. The “% of Animals Blocked” value ([1]; single dose 84 mg/kg i.p.) was 60%, the “% of Animals Blocked” value ([1]; single dose 100 mg/kg i.p.) was 60% and the GABA content elevation ([2]; daily dose 5 mg/kg i.p.) was 190%. It also gave a GABA content elevation ([2]; daily dose 10 mg/kg i.p.) of 200%, a GABA content elevation ([2]; daily dose 25 mg/kg i.p.) of 470% and a GABA content elevation ([2]; daily dose 50 mg/kg i.p.) of 465%. For the same compound, the “Morality (After treatment)” value ([3]; daily dose 5 mg/kg i.p.) was 0/5, the “Weight Loss” value ([3]; daily dose 5 mg/kg i.p.) was 0% and the “Morality (After treatment)” value ([3]; daily dose 10 mg/kg i.p.) was 0/5. The “Weight Loss” value ([3]; daily dose 10 mg/kg i.p.) was 0%, the mortality at 288 h ([3]; daily dose 25 mg/kg i.p.) was 40% and the mortality at 288 h ([3]; daily dose 50 mg/kg i.p.) was 60%.
